Source: patent publication US9212146B2, “Substituted pyridazinones for the treatment of tumors” (SHANGHAI INSTITUTE OF MATERIA MEDICA, CHINESE ACADEMY OF …, priority 2008, dated 2015)

Legend:
[1] = test system: A2780 ovarian cancer cells; assay: SRB assay Example 17, A2780; assay type: cell-based; settings: Homo sapiens, 72 h
Description: (§1) Protocol: the antineoplasmic activities in vitro of the compounds were assayed by a Sulforhodamine B (SRB) protocol. Tumor cells were cultivated at 37 under 5% CO2 in a RPMI 1640 medium or a DMEM medium (Gibco) containing 10% fetal bovine serum. Tumor cells were inoculated on a 96-well plate with a concentration of 0.4-1.0×10^4 cells per well according to the cell types. 24 hours later, the target compounds diluted 3 times were added, each compound having at least 9 concentrations. After treated by the compounds for 72 hours, the culture media were discarded, and the cells were fixed by 10% cold trichloroacetic acid, and then stained by Sulforhodamine B (SRB) solution. The uncombined SRB was washed off, and the SRB combined with protein was dissolved with Tris. OD values were recorded at 515 nm on an ELISA Reader, and the cell growth inhibition rate was calculated according to following equation: Inhibition rate=(ODcontrol−ODexperimental)/ODcontrol×100%
(§2) IC50 (50% inhibitory concentration) was calculated by using Logit method based on the inhibition rates at various concentration, and the results are shown in table 4.
(§3) Proliferation of turner cells was assayed by SRB protocol, drug action 72 h.

[2] = test system: HUH-7 liver cancer cells; assay: SRB assay Example 17, HUH-7; assay type: cell-based; settings: Homo sapiens, 72 h
Description: as §1, §2, §3

[3] = test system: HUVEC normal human umbilical vein endothelial cells; assay: SRB assay Example 17, HUVEC (20% FBS); assay type: cell-based; settings: 72 h
Description: as §1, §2, §3

[4] = test system: Bel-7404 liver cancer cells; assay: SRB assay Example 17, Bel-7404; assay type: cell-based; settings: Homo sapiens, 72 h
Description: as §1, §2, §3

[5] = test system: QGY-7703 liver cancer cells; assay: SRB assay Example 17, QGY-7703; assay type: cell-based; settings: Homo sapiens, 72 h
Description: as §1, §2, §3

[6] = test system: SK-HEP-1 liver cancer cells; assay: SRB assay Example 17, SK-HEP-1; assay type: cell-based; settings: Homo sapiens, SK-HEP1, 72 h
Description: as §1, §2, §3

[7] = test system: SMMC-7721 liver cancer cells; assay: SRB assay Example 17, SMMC-7721; assay type: cell-based; settings: Homo sapiens, 72 h
Description: as §1, §2, §3

[8] = test system: human liver cancer cells SMMC-7721 transplanted tumor; assay: SMMC-7721 transplanted tumor on nude mice; assay type: in vivo; settings: intragastrically once a day for 10 days
Description: Experimental procedure: BALB/cA nude mice, 6-7 weeks old, ♀, were purchased from Shanghai SLAC Laboratory Animal Co. LTD. Certificate No.: SCXK (Shanghai) 2007-0005. Habitat: SPF level. The compounds were diluted with 0.5% CMC containing 0.1% Tween-80 to a desired concentration. Human liver cancer cells SMMC-7721 were inoculated on nude mice subcutaneously. After the tumor grew up to 100-200 mm^3, animals were grouped randomly (d0). Mice were consecutively administered with compounds intragastrically once a day for 10 days. The tumor volume was measured 2-3 times each week and the weights of mice were recorded. The tumor volume (V) was calculated according to the following equation: V=½×a×b^2, wherein, a and b are length and width, respectively.

[9] = test system: HeLa cervical carcinoma cells; assay: SRB assay Example 17, HeLa; assay type: cell-based; settings: Homo sapiens, 72 h
Description: as §1, §2, §3

[10] = test system: HL-7702 liver cell; assay: SRB assay Example 17, HL-7702; assay type: cell-based; settings: Homo sapiens, L02, 72 h
Description: as §1, §2, §3

[11] = test system: Chang liver liver cell; assay: SRB assay Example 17, Chang liver; assay type: cell-based; settings: Homo sapiens, 72 h
Description: as §1, §2, §3

[12] = test system: QSG-7701 liver cancer cells; assay: SRB assay Example 17, QSG-7701; assay type: cell-based; settings: Homo sapiens, QSG7701, 72 h
Description: as §1, §2, §3

[13] = test system: H460 lung cancer cells; assay: SRB assay Example 17, H460; assay type: cell-based; settings: Homo sapiens, NCI-H460, 72 h
Description: as §1, §2, §3

[14] = test system: Hep3B liver cancer cells; assay: SRB assay Example 17, Hep3B; assay type: cell-based; settings: Homo sapiens, 72 h
Description: as §1, §2, §3

[15] = test system: CNE nasopharyngeal carcinoma cells; assay: SRB assay Example 17, CNE; assay type: cell-based; settings: Homo sapiens, 72 h
Description: as §1, §2, §3

[16] = test system: MCF-7 breast carcinoma cells; assay: SRB assay Example 17, MCF-7; assay type: cell-based; settings: Homo sapiens, MCF7, 72 h
Description: as §1, §2, §3

[17] = test system: SK-BR-3 breast carcinoma cells; assay: SRB assay Example 17, SK-BR-3; assay type: cell-based; settings: Homo sapiens, 72 h
Description: as §1, §2, §3

[18] = test system: human liver cancer cells Bel-7402 transplanted tumor; assay type: in vivo
Source text: Name and lot number: YHHU-744, a white powder, lot No.: No. c001471-106; YHHU-755, a white powder, lot No.: No. c001471-102; YHHU-756, a white powder, lot No.: No. c00147-106; YHHU-759, a white powder, lot No.: No. c001471-102; YHHU-776, a white powder, lot No.: No. c001471-107. Sorafenib was used as a positive control.
Formulation: YHHU-744, YHHU-755, YHHU-756, YHHU-759, YHHU-776 and the positive control were each diluted with 0.1% Tween-80 and distilled water to a desired concentration.
BALB/cA nude mice, 6-7 weeks old, ♀, were purchased from Shanghai SLAC Laboratory Animal Co. LTD. Certificate No.: SCXK (Shanghai) 2007-0005. Habitat: SPF level.
Human liver cancer cells Bel-7402 were inoculated on nude mice subcutaneously. After the tumor grew up to 300-450 mm^3, animals were grouped randomly (d0). The tumor volume was measured 2-3 times each week and the weights of mice were recorded. The tumor volume was calculated according to as the following equation. V=½×a×b^2 wherein, a and b are length and width, respectively. […]

[19] = test system: HCCC-9810 liver cancer cells; assay: SRB assay Example 17, HCCC-9810; assay type: cell-based; settings: Homo sapiens, HCCC9810, 72 h
Description: as §1, §2, §3

[20] = test system: human hepatoma cell line Bel-7402; assay: SRB proliferation assay, Bel-7402; assay type: cell-based; settings: Homo sapiens, Bel-7402, 72 h, BEL-7402 cultivated in vitro, given as bounds, read-out: The Inhibition Activities for Human Liver Cancer Cells BEL-7402 (IC50)
Description: as §1, with “diluted 10” for “diluted 3”, “least 5” for “least 9”
IC50 (50% inhibitory concentration) was calculated by using Logit method based on the inhibition rates at various concentration, and the results are shown in tables 1 and 2.
The following cell lines were used: human hepatocarcinoma cell line […]; ovarian cancer cell line SK-OV-3; human breast cancer cell line MDA-MB-231; human renal carcinoma cell line A498; colon adenocarcinoma cell line HT-29; non-small cell lung cancer cell line NCI-H460; lung adenocarcinoma cell line A549; human colon cancer cell line SW-620; human hepatoma cell line Bel-7402; human breast carcinoma cell line SK-BR-3; and human umbilical vein endothelial cells (HUVEC).

[21] = test system: QGY-7701 liver cancer cells; assay: SRB assay Example 17, QGY-7701; assay type: cell-based; settings: Homo sapiens, QGY7701, 72 h
Description: as §1, §2, §3

[22] = test system: HepG2 liver cancer cells; assay: SRB assay Example 17, HepG2; assay type: cell-based; settings: Homo sapiens, 72 h
Description: as §1, §2, §3

[23] = test system: Bel-7402 liver cancer cells; assay: SRB assay Example 17, Bel-7402; assay type: cell-based; settings: Homo sapiens, drug action 72 h
Description: as §1, §2, §3

[24] = test system: A549 lung cancer cells; assay: SRB assay Example 17, A549; assay type: cell-based; settings: Homo sapiens, 72 h
Description: as §1, §2, §3

[25] = test system: 3AO ovarian cancer cells; assay: SRB assay Example 17, 3AO; assay type: cell-based; settings: Homo sapiens, 72 h
Description: as §1, §2, §3

[26] = 100 mg/kg, PO, QDx11, Bel-7402 on nude mice

Work on `CN1CCN(c2ccc(-c3ccc(=O)[nH]n3)cc2C(F)(F)F)CC1` [YHHU-756] yielded an IC50 [1] of 30 nM, an IC50 [2] greater than 10000 nM and an IC50 [3] of 50 nM. The IC50 [4] was 410 nM, the IC50 [5] was 20 nM and the IC50 [6] was greater than 10000 nM. The IC50 [7] was 10 nM, the “survivability / weight loss of mice bearing cancer” value [8] was “no symptoms such as weight loss was observed” and the “growth of SMMC-7721 transplanted tumor” value ([8]; subcutaneous tumor on nude mice) was “caused part of the tumors vanished”. For the same compound, the IC50 [9] was 20 nM, the IC50 [10] was 30 nM and the IC50 [11] was 20 nM. The IC50 [12] was 20 nM, the IC50 [13] was 12900 nM and the IC50 [14] was greater than 10000 nM. For the same compound, the IC50 [15] was 10 nM, the IC50 [16] was 12100 nM and the IC50 [17] was 7100 nM. The “Quantity of Animals Whose Tumors Vanished” value ([18]; 100 mg/kg, PO, QDx11, 5 animals per group) was 5, the “Inhibition Rate (%)” value [18, 26] was 100% and the “Tumor Volume (mm^3)” value [18, 26] was 294.6 mm^3. The “tumors vanished (animals/group)” value ([18]; at the 11th day, intragastrically once a day for 11 days) was 5/5, the recrudescence of tumors ([18]; at the end of the experiment (17th day)) was “no recrudescence was observed” and the “toxicity / survivability of mice” value ([18]; intragastrically once a day for 11 days, nude mice) was “no significant toxicity was observed”. It also gave an IC50 [19] greater than 10000 nM, an IC50 [20] of less than 10 nM and an IC50 [21] of 20 nM. For the same compound, the IC50 [22] was greater than 10000 nM, the IC50 [23] was 20 nM and the IC50 [24] was 13200 nM. It also gave an IC50 [25] of 20 nM.
